According to patent publication US20240103006A1 (Roche Diagnostics Operations, Inc., priority 2021, published 2024):
≈ marks a conversion by molar mass, not a printed value. Marks after values point to notes of the source that are not given here.

What was measured:
[1] = Evaluation of solubility in water; type: physicochemical; conditions: for Solubility (by weight) / Solubility (by UV-vis): H2O at RT; for Solubility (by weight): calculated from isolated pellet weight; for Solubility (by UV-vis): supernatant read in 25 mM HEPES pH 7.4
Experimental: In the experiments, 5-10 mg of dried material was suspended in 250-500 μL of H2O at RT. The resulting suspension was centrifuged for 10 min at RT (16000 rcf). UV-vis of supernatant were recorded in buffer (25 mM HEPES pH 7.4) at RT. Each measurement was done in triplicate. The pellet was dried in vacuo for 16 h, and then weighed.
The aqueous solubility of probes is another important property for the performance of compounds in biological assays. The inventors determined the solubility in water of the probes according to the invention using UV-vis. First, oversaturated mixtures of each probe were prepared. The mixtures were centrifuged, and then the concentrations in probes of supernatant were examined by UV-vis. To further validate the results, the concentrations were calculated from the isolated pellet weight.

[2] = Evaluation of stability (hydrolysis of probe in buffer, UV-vis); type: physicochemical; conditions: 25 mM HEPES pH 7.4, 15.6 μM, 5 h, ε from merocyanine analogues (LZ07: ε from Table 2)
Experimental: For a measurement, 1000 μL of buffer and 16 μL of probe (1.0 mM) were mixed, and then incubated at +4° C. and at +37° C. for 5 h. The resulting mixtures were transferred to a cuvette, and the absorbance (250-800 nm) was measured. Each measurement was done in triplicate.
[…] Solutions of each probe were monitored by UV-vis for 5 h.

[3] = UV-vis spectral properties / extinction coefficients in aqueous buffer; type: physicochemical; conditions: probe before addition of Cys; for ε of long-wavelength band of probe / ε of short-wavelength band(s) of probe / λmax, long-wavelength band of probe / λmax, short-wavelength band(s) of probe: 25 mM HEPES pH 7.4
Experimental: Absorption spectra were recorded on a Cary 50 UV-vis spectrometer from Varian. All measurements were performed in 1 cm UV-vis disposable cuvettes (BRAND semi-micro) and air-equilibrated solutions at 25±0.1° C. A total assay volume of 1.0 mL was used for each measurement. UV-vis scan spectra were recorded using following parameters: average time 0.05 s; data interval 1 nm; scan rate 1200 nm/min; with base line correction.
(§1) Stock solutions of assayed compounds (2-5 mM) were prepared in H2O-DMSO (1:1), stored at −20° C., and diluted to 1.0 mM with buffer before use. The L-Cys stock solution (20.0 mM) was freshly prepared in buffer before the measurements. […]
For a measurement, 1000 μL of buffer and 1-50 μL of probe (1.0 mM) were mixed, and then transferred to a cuvette. Absorbance spectra (250-800 nm) were measured against a blank of the buffer. At least six concentrations of each compound were used to calculate extinction coefficients from the slope of probe concentration vs absorbance plots, using MS Excel software (Microsoft).

[4] = Cys-response screening by UV-vis (cleavage of acryloyl ester by excess Cys); conditions: for ε^Cys / λ^Cys: after excess Cys (100 μM), 37° C., 15 min; for SNR: from ε^Cys and ε^blank
Experimental: as §1
In the same manner, ε^Cys was determined from the solutions of probe reacted with an excess of Cys (100 μM). The reactions were performed at 37° C. (incubation time 15 min). Blank reactions were run without addition of Cys.
Spectra recorded in the presence of Cys confirmed a colorimetric response through the cleavage of acryloyl ester. […] Moreover, their spectral profiles were advantageously fulfilling the wavelength requirement for the Cys sensing application in Cedex system (340, 378, 409, 480, 512, 520, 552, 583, 629, 652, 659 and 800 nm).

[5] = Probe performance in Cedex Bio HT: Cys sensing in a feed medium
Experimental: The rapid kinetic profile, stability and low background signal as obtained were encouraging to further use MF70 for Cys-sensing in Cedex Bio HT. Reagent solution was treated with various Cys-concentrations (0.5-7.6 mM) in a feed medium, which is used for monoclonal antibody production. […] Under these conditions, a reliable response was obtained over the period of one week (Table 5), with corresponding detection limit of 3.6 μM Cys, and limit of blank 2.2 μM Cys.

| Compound | Solubility (by weight) [1] | Solubility (by UV-vis) [1] | Hydrolysis @4° C. [2] | Hydrolysis @37° C. [2] | ε of long-wavelength band of probe [3] | ε of short-wavelength band(s) of probe [3] | λmax, long-wavelength band of probe [3] | λmax, short-wavelength band(s) of probe [3] | aqueous solubility (in words) ([1]; in comparison to LZ05 and MF59) | ε of short-wavelength band of probe ([3]; same buffer at pH 8.0) | λmax, short-wavelength band of probe ([3]; same buffer at pH 8.0) | ε^Cys ([4]; 25 mM HEPES pH 7.4) | λ^Cys ([4]; 25 mM HEPES pH 7.4) | SNR ([4]; 25 mM HEPES pH 7.4) | ε^Cys ([4]; same buffer at pH 8.0) | λ^Cys ([4]; same buffer at pH 8.0) | SNR ([4]; same buffer at pH 8.0) | detection limit [5] | limit of blank [5] |
| --- | --- | --- | --- | --- | --- | --- | --- | --- | --- | --- | --- | --- | --- | --- | --- | --- | --- | --- | --- |
| C=CC(=O)Oc1ccc(/C=C/C2=[N+](CCCCS(=O)(=O)[O-])c3ccccc3C2(C)C)cc1 [LZ05, reference compound] | 12 mM (≈ 5440 µg/mL) | 11.0 ± 1.0 mM (≈ 4990 µg/mL) | 8.4 ± 0.2% | 36.9 ± 0.4% | 1.3 mM⁻¹ cm⁻¹ | 17.3 mM⁻¹ cm⁻¹ | 527 nm | 389 nm | – | – | – | 31.9 mM⁻¹ cm⁻¹ | 527 nm | 12 | – | – | – | – | – |
| C=CC(=O)Oc1ccc(/C=C/C2=[N+](C)c3ccccc3C2(C)C)cc1 [LZ07, reference compound] | 17 mM | 15.4 ± 1.5 mM | 7.3 ± 0.1 % | 30.1 ± 0.2 % | 0.6 mM⁻¹ cm⁻¹ | 16.9 mM⁻¹ cm⁻¹ | 520 nm | 383 nm | – | – | – | 31.5 mM⁻¹ cm⁻¹ | 520 nm | 16 | – | – | – | – | – |

Continued, in another order:

| Solubility (by weight) [1] | Solubility (by UV-vis) [1] | Hydrolysis @4° C. [2] | Hydrolysis @37° C. [2] | ε of long-wavelength band of probe [3] | ε of short-wavelength band(s) of probe [3] | λmax, long-wavelength band of probe [3] | λmax, short-wavelength band(s) of probe [3] | aqueous solubility (in words) ([1]; in comparison to LZ05 and MF59) | ε of short-wavelength band of probe ([3]; same buffer at pH 8.0) | λmax, short-wavelength band of probe ([3]; same buffer at pH 8.0) | Compound | ε^Cys ([4]; 25 mM HEPES pH 7.4) | λ^Cys ([4]; 25 mM HEPES pH 7.4) | SNR ([4]; 25 mM HEPES pH 7.4) | ε^Cys ([4]; same buffer at pH 8.0) | λ^Cys ([4]; same buffer at pH 8.0) | SNR ([4]; same buffer at pH 8.0) | detection limit [5] | limit of blank [5] |
| --- | --- | --- | --- | --- | --- | --- | --- | --- | --- | --- | --- | --- | --- | --- | --- | --- | --- | --- | --- |
| 2 mM (≈ 963 µg/mL) | 5.8 ± 0.2 mM (≈ 2790 µg/mL) | 1.2 ± 0.0% | 4.7 ± 0.1% | 0.7 mM⁻¹ cm⁻¹ | 16.7 mM⁻¹ cm⁻¹ | 550 nm | 391 nm | – | – | – | C=CC(=O)Oc1c(C)cc(/C=C/C2=[N+](CCCCS(=O)(=O)[O-])c3ccccc3C2(C)C)cc1C [MF59] | 17.9 mM⁻¹ cm⁻¹ | 550 nm | 20 | 52.9 mM⁻¹ cm⁻¹ | 550 nm | 44** | – | – |
| ≥47 mM | ≥41 mM | 0.2 ± 0.0% | 0.8 ± 0.0% | – | 21.9 mM⁻¹ cm⁻¹ | – | 400 nm | highly water-soluble | 16.6 mM⁻¹ cm⁻¹ | 400 nm | C=CC(=O)Oc1c(C)cc(/C=C/C2=[N+](CCCS(=O)(=O)O)c3ccc(S(=O)(=O)[O-])cc3C2(C)C)cc1C [MF70] | 23.6 mM⁻¹ cm⁻¹ | 556 nm | 118 | 55.8 mM⁻¹ cm⁻¹ | 556 nm | 140** | 3.6 μM Cys | 2.2 μM Cys |
| – | – | 0.8 ± 0.1% | 2.8 ± 0.1% | – | 14.2 mM⁻¹ cm⁻¹ | – | 396 nm | – | – | – | C=CC(=O)Oc1c(OC)cc(/C=C/C2=[N+](CCCCS(=O)(=O)[O-])c3ccccc3C2(C)C)cc1OC [MF72] | 31.0 mM⁻¹ cm⁻¹ | 575 nm | 103 | – | – | – | – | – |
